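Method: 48-hour compound exposure of cells in 96-well plates, five concentrations, linear interpolation of endpoints. GI50 = concentration required for 50% inhibition of growth.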 Calls of active or inactive are those of the source. No stated cut-off is given here; in the data, active = GI50 up to about 1.1 µM and inactive = higher.
How the values were obtained:
Assay in all cases: NCI anticancer screen, dose series, 48 h
SN12C = system: SN12C
HT-29 = system: HT-29
CCRF-CEM = system: CCRF-CEM
NCI-H23 = system: NCI-H23
Malme-3M = system: Malme-3M
KM12 = system: KM12
LOX IMVI = system: LOX IMVI
A549 = system: A549
IGROV-1 = system: IGROV-1
U-251 = system: U-251
M14 = system: M14
SNB-19 = system: SNB-19
ACHN = system: ACHN
OVCAR-5 = system: OVCAR-5
A498 = system: A498
SNB-75 = system: SNB-75
CAKI-1 = system: CAKI-1
SK-MEL-2 = system: SK-MEL-2

Measured: GI50

CCCCc1c2c([n+]([O-])c3c1CCCC3)CCCC2
inactive: SN12C > 100 µM | HT-29 > 100 µM | CCRF-CEM 19.3 µM | NCI-H23 > 100 µM | Malme-3M > 100 µM | KM12 > 100 µM | LOX IMVI > 100 µM | A549 > 100 µM | IGROV-1 43.1 µM | U-251 > 100 µM | M14 > 10 µM | SNB-19 44.4 µM | ACHN 5.12 µM

Cc1cc2nc3c(C(OC4OC(CO)C(O)C(O)C4O)C(O)CO)nn(-c4ccc(F)cc4)c3nc2cc1C (stereo unspecified)
inactive: SN12C > 100 µM | HT-29 > 100 µM | OVCAR-5 > 100 µM | CCRF-CEM > 100 µM | NCI-H23 > 100 µM | Malme-3M > 100 µM | KM12 > 100 µM | LOX IMVI > 100 µM | A498 > 100 µM | U-251 > 100 µM | M14 > 100 µM | SNB-19 > 100 µM | ACHN > 100 µM | SNB-75 80.7 µM

CCOC(=O)C(=O)Nc1c(C)cccc1C
inactive: SN12C > 100 µM | HT-29 > 100 µM | OVCAR-5 > 100 µM | NCI-H23 > 100 µM | Malme-3M > 100 µM | CAKI-1 > 100 µM | KM12 > 100 µM | LOX IMVI > 100 µM | A549 > 100 µM | SK-MEL-2 > 100 µM | IGROV-1 > 100 µM | U-251 > 100 µM | M14 > 100 µM | SNB-19 > 100 µM | ACHN > 100 µM | SNB-75 > 100 µM

Cc1n[nH]c(=S)n(C)c1=S
inactive: SN12C > 100 µM | OVCAR-5 > 100 µM | CCRF-CEM > 100 µM | NCI-H23 > 100 µM | Malme-3M > 100 µM | LOX IMVI > 100 µM | A549 > 100 µM | A498 > 100 µM | SK-MEL-2 > 100 µM | IGROV-1 > 100 µM | U-251 > 100 µM | M14 > 100 µM | SNB-19 > 100 µM | ACHN > 100 µM | SNB-75 > 100 µM

COc1ccccc1C12OC(=O)C1(C)Oc1ccccc1C2=O (stereo unspecified)
inactive: SN12C > 100 µM | HT-29 > 100 µM | OVCAR-5 > 100 µM | CCRF-CEM > 100 µM | NCI-H23 > 100 µM | Malme-3M > 100 µM | KM12 > 100 µM | LOX IMVI 26.8 µM | A549 > 100 µM | A498 > 100 µM | SK-MEL-2 > 100 µM | IGROV-1 > 100 µM | U-251 > 100 µM | M14 > 100 µM | SNB-19 > 100 µM | ACHN > 100 µM | SNB-75 34.8 µM

Nc1ccc(C(=O)N/C(=C\c2ccc3c(c2)OCO3)c2nc3ccccc3s2)cc1
inactive: SN12C 13 µM | HT-29 12.6 µM | OVCAR-5 22 µM | CCRF-CEM 1.89 µM | NCI-H23 > 10 µM | Malme-3M > 10 µM | CAKI-1 15.9 µM | KM12 14.8 µM | A549 15.5 µM | SK-MEL-2 14.8 µM | IGROV-1 14.6 µM | U-251 13.1 µM | M14 11 µM | SNB-19 15.2 µM | ACHN 14.2 µM

N#Cc1c(C[n+]2ccccc2)c2ccccc2oc1=O
inactive: SN12C > 100 µM | HT-29 > 100 µM | OVCAR-5 > 100 µM | CCRF-CEM > 100 µM | NCI-H23 > 100 µM | Malme-3M > 100 µM | CAKI-1 > 100 µM | KM12 > 100 µM | LOX IMVI > 100 µM | A549 > 100 µM | SK-MEL-2 > 100 µM | IGROV-1 > 100 µM | U-251 > 100 µM | M14 > 100 µM | SNB-19 > 100 µM | ACHN > 100 µM | SNB-75 > 100 µM

O=C[C@]12CC=C3OC4OC5(CCCCC5)OC4[C@H]3[C@H]1C(=O)C=CC2=O (stereo partly specified)
inactive: SN12C 52.8 µM | HT-29 40.2 µM | OVCAR-5 53.3 µM | CCRF-CEM 2.44 µM | NCI-H23 > 10 µM | Malme-3M 17.6 µM | CAKI-1 23 µM | KM12 29.4 µM | A549 11.6 µM | A498 > 100 µM | SK-MEL-2 33.7 µM | U-251 22.7 µM | M14 19 µM | SNB-19 28.4 µM | ACHN 18.2 µM

CC1=C(c2nc3ccccc3s2)C(=O)OC1(C)C
inactive: SN12C > 100 µM | HT-29 > 100 µM | OVCAR-5 > 100 µM | CCRF-CEM > 100 µM | NCI-H23 > 100 µM | Malme-3M > 100 µM | CAKI-1 > 100 µM | KM12 > 100 µM | LOX IMVI > 100 µM | A549 > 100 µM | SK-MEL-2 > 100 µM | U-251 > 100 µM | M14 > 100 µM | SNB-19 > 100 µM | ACHN > 100 µM | SNB-75 86.5 µM

O=[N+]([O-])c1ccc2nc(/C(=N/Nc3ccccc3)C(O)c3ccc(C(O)/C(=N\Nc4ccccc4)c4nc5ccc([N+](=O)[O-])cc5nc4O)cc3)cnc2c1 (stereo unspecified)
inactive: SN12C 44.1 µM | HT-29 > 100 µM | OVCAR-5 31.4 µM | CCRF-CEM 39.6 µM | NCI-H23 > 100 µM | Malme-3M > 100 µM | CAKI-1 60.4 µM | KM12 37.1 µM | A549 48.5 µM | A498 32.1 µM | SK-MEL-2 43.8 µM | IGROV-1 > 100 µM | M14 40.3 µM | SNB-19 > 100 µM | ACHN 18 µM

O=C(c1ccccc1)C1(Br)S(=O)(=O)OCCOS1(=O)=O
inactive: SN12C > 100 µM | HT-29 > 100 µM | OVCAR-5 > 100 µM | CCRF-CEM > 100 µM | NCI-H23 > 100 µM | Malme-3M > 100 µM | LOX IMVI > 100 µM | A549 > 100 µM | A498 > 100 µM | SK-MEL-2 > 100 µM | IGROV-1 > 100 µM | U-251 > 100 µM | M14 > 100 µM | SNB-19 > 100 µM | ACHN > 100 µM | SNB-75 > 100 µM

Cc1ccc(/N=C2/S/C(=C3/CCC=C3N3CCOCC3)N(c3ccc(Cl)cc3)/C2=N/c2ccc(C)cc2)cc1
inactive: SN12C > 100 µM | HT-29 > 100 µM | OVCAR-5 > 100 µM | NCI-H23 > 100 µM | Malme-3M > 100 µM | KM12 > 100 µM | A549 > 100 µM | A498 > 100 µM | SK-MEL-2 > 100 µM | IGROV-1 > 100 µM | U-251 > 100 µM | M14 > 100 µM | SNB-19 > 100 µM | ACHN > 100 µM | SNB-75 > 100 µM

COc1cc(/C=C/c2ccc(OC)c(O)c2)cc(OC)c1
inactive: SN12C 8.51 µM | HT-29 16.7 µM | OVCAR-5 31.8 µM | CCRF-CEM 3.15 µM | NCI-H23 3.44 µM | Malme-3M 10 µM | CAKI-1 25.5 µM | KM12 12.4 µM | LOX IMVI 12.2 µM | A549 4.82 µM | A498 29.4 µM | SK-MEL-2 6.41 µM | IGROV-1 18.7 µM | U-251 3.92 µM | M14 3.08 µM | SNB-19 3.87 µM | ACHN 7.52 µM
